Experimental data published in paper PMC7048748, “Anxiolytic Drug FGIN-1-27 Ameliorates Autoimmunity by Metabolic Reprogramming of Pathogenic Th17 Cells” (Scientific Reports, 2020).

Experiments:
Th17 cells = test: Rescue of IL-17 production by NAC pre-treatment; assay type: cell-based, mouse; details: NAC 1 µM pre-treatment, 10 µM FGIN-1-27
Method: Figure 5 FGIN-1-27 induces amino acid starvation response (AAR). (a) MA-plot showing shrunken log2 fold-changes of detected genes between the DMSO and FGIN-1-27 RNA-seq samples, ranked by average normalized count. Red dots indicate differentially expressed genes at adjusted p-value <0.05. (b) Transcript levels for the indicated genes after 24 hours of treatment with DMSO or FGIN-1-27 quantified by qPCR. The error bars represent SD. (c) Western blot analysis for phosphorylated eIF2α and ATF4 24 hours after treatment with DMSO or FGIN-1-27 (5 and 10 µM). Data are representative of 3 independent experiments. (d) Amino acids in Th17 cells measured 72 hours after treatment with FGIN-1-27. The error bars represent SD. (e) ROS was measured using cell permeant reagent 2′,7′ –dichlorofluorescin diacetate (DCFDA) at 24 hours following treatment with FGIN-1-27. Filled grey histogram-DMSO, dotted line-FGIN-1-27 (10 µM) and dashed line indicates FGIN-1-27 (5 µM). (f) Dose response plot showing effect of FGIN-1-27 on intracellular IL-17 after pre-treatment with NAC (1 µM). […]
Increased amino acid synthesis and transport is characteristic of the amino acid starvation response (AAR)[20]. […] Induction of ATF4 can be an indication of oxidative stress and we measured reactive oxygen species (ROS) using the cell permeant reagent 2′,7′ –dichlorofluorescin diacetate (DCFDA).

Th17 responses = tested on: Th17 responses; design: method as in PMID 19498172; details: activation of the AAR; cited from earlier work

With `CC(=O)N[C@@H](CS)C(=O)O` [NAC, N-acetyl cysteine] the “rescue of defective IL-17 production” value (Th17 cells) was 14%.
In the case of `O=C(CC1NCCCC1O)Cn1cnc2cc(Br)c(Cl)cc2c1=O` (centres unmarked) [halofuginone], the Th17 responses (Th17 responses) is listed as “down-regulate Th17 responses”.
